Literature values, collected in patent US20070025931A1, “Powdery preparations containing 2.4.6-trianilino-p-(carbo-2'-ethylhexyl-1'-oxi)-1.3.5-triazine” (BASF Aktiengesellschaft, priority 2004, published 2007).

Details: at 314 nm

SMILES: CCCCC(CC)COC(=O)c1ccc(Nc2nc(Nc3ccc(C(=O)OCC(CC)CCCC)cc3)nc(Nc3ccc(C(=O)OCC(CC)CCCC)cc3)n2)cc1 (stereo not shown) [Uvinul® T150, 2,4,6-Trianilino-p-(carbo-2′-ethylhexyl-1′-oxy)-1,3,5-triazine]
- absorbance coefficient: > 1500
